In US8569301B2, “6, 6-dioxo-6-thia-1, 4-diaza-naphthalenes as herbicides” (Syngenta Limited, priority 2009, dated 2013):

Tested on: crop and representative weed species
Assay: Example B2 herbicidal action post-emergence (Table B2)
Assay type: in vivo
Details: application post-emergence, rate 500 g/ha, evaluated after 15 days, score 10 to 0; for herbicidal damage score AMARE (10=total damage to plant; 0=no damage to plant): AMARE = Amaranthus retroflexus; for herbicidal damage score ECHCG (10=total damage to plant; 0=no damage to plant): ECHCG = Echinochloa crus-galli; for herbicidal damage score IPOHE (10=total damage to plant; 0=no damage to plant): IPOHE = Ipomea hederaceae; for herbicidal damage score SETFA (10=total damage to plant; 0=no damage to plant): SETFA = Setaria faberi
Experimental: Seeds of crop and representative weed species were sown in standard soil in pots. After cultivation for 14 days under controlled conditions in a glasshouse (at 22/16° C., day/night; 16 hours light; 65% humidity), the plants were sprayed. The spray solution was prepared by dissolving the technical active ingredient in acetone containing 10.56 wt % Emulsogen EL, 42.22 wt % N-methylpyrrolidone and 2.22 wt % DPG-monoethyl ether to give a 5% stock solution. This was then diluted with water containing 0.2% (v/v) of the adjuvant X-77 to give the desired treatment concentration.
The test plants were then grown on under controlled conditions in a glasshouse (at 22/16° C., day/night; 16 hours light; 65% humidity) and watered twice daily. After 15 days the test was evaluated and the assessed scores, from 10 to 0, are tabulated in Table B2 (10=total damage to plant; 0=no damage to plant).

Row | SMILES | herbicidal damage score AMARE (10=total damage to plant; 0=no damage to plant) | herbicidal damage score ECHCG (10=total damage to plant; 0=no damage to plant) | herbicidal damage score IPOHE (10=total damage to plant; 0=no damage to plant) | herbicidal damage score SETFA (10=total damage to plant; 0=no damage to plant)
1 | CCCC1c2nccnc2C(O)=C(c2c(F)ccc(Br)c2Cl)S1(=O)=O (stereo not shown) [Compound E22] | 7 | 0 | 7 | 2
2 | CC1(C)c2nccnc2C(O)=C(c2cc(F)ccc2Cl)S1(=O)=O [Compound F3] | 7 | 4 | 8 | 4
3 | O=S1(=O)C(c2c(F)ccc(Br)c2Cl)=C(O)c2nccnc2C12CCCC2 [Compound F8] | 5 | 6 | 8 | 5
4 | C#CCC1(C)c2nccnc2C(O)=C(c2c(Cl)cccc2C(F)(F)F)S1(=O)=O (stereo not shown) [Compound F10, 7-(2-chloro-6-trifluoromethyl-phenyl)-5-methyl-6,6-dioxo-5-prop-2-ynyl-5,6-dihydro-6-thia-1,4-diaza-naphthalen-8-ol] | 8 | 7 | 9 | 8
